Experiments:
Type in all cases: in vivo, human
[1] = test system: Subjects Having Insomnia Disorder; assay: Example 2: subjective sleep efficiency (sSE), sleep diary
Text: As used herein, the term “subjective sleep efficiency”, abbreviated as “sSE”, means the proportion of sTST per subjective time spent in bed, calculated as the interval from the time the subject reports attempting to sleep until the time the subject stopped trying to sleep for the night (operationalized as the time the subject got out of bed for the day), and time spent asleep derived from subjective time spent in bed minus sWASO. As used herein, an “improvement of sleep efficiency in Subjective Sleep Efficiency (sSE)” means an increase in sleep efficiency in Subjective Sleep Efficiency (sSE).
(§1) In some embodiments, sleep diaries were used to assess sleep parameters reported by subjects (i.e., subjective assessments) including subjective sleep onset latency (sSOL), subjective sleep efficiency (sSE), subjective WASO (sWASO), and subjective total sleep time (sTST). Subjects were instructed to complete the Sleep Diary developed based on the consensus Sleep Diary as described in Carney et al., “The consensus sleep diary: standardizing prospective sleep self-monitoring,” Sleep 2012; 35(2):287-302. In some embodiments, the Sleep Diary was used to assess the subject's global perception of quality of sleep on the previous night with the following question: “How would you rate the quality of your sleep last night?” Subjects rated the quality of their sleep on a scale from 1 to 9, with 1 being extremely poor and 9 being extremely good. In some embodiments, the Sleep Diary was used to assess subjective ratings of morning sleepiness with the following question: “How alert/sleepy do you feel this morning?” Subjects rated their sleepiness/alertness level on a Likert scale from 1 to 9, with 1 being extremely sleepy and 9 being extremely alert.
sSE—subjective sleep efficiency: proportion of sTST per subjective time spent in bed, calculated as the interval from the time the subject reports attempting to sleep until the time the subject stopped trying to sleep for the night (operationalized as the time the subject got out of bed for the day), and time spent asleep derived from subjective time in bed minus sWASO.
(§2) The treatment period lasted for 31 days. Subjects were randomized in a double-blind manner and received placebo, a tablet containing 5 mg of lemborexant, a tablet containing 10 mg of lemborexant, or a tablet containing 6.25 mg of zolpidem ER.
(§3) Once home, the subject ingested study drug each night prior to bedtime and completed their sleep diary within 1 hour of waketime.

[2] = test system: Subjects Having Insomnia Disorder; assay: Example 2: treatment-emergent adverse events
Method: Between 14 and 18 days after completion of the treatment period, subjects returned to the clinic for the end of study visit. The T-BWSQ and eC-SSRS were administered and routine safety assessments were conducted.
A subject who prematurely discontinued taking study drug was to return to the clinic as soon as practicable after discontinuing study drug. If the subject discontinued due to an adverse event, the adverse event must have been followed to resolution or for 2 weeks, whichever came first. Additionally, subjects who discontinued early underwent a urine drug test.

[3] = test system: Subjects Having Insomnia Disorder; assay: Example 2: subjective total sleep time (sTST), sleep diary
Text: As used herein, the term “subjective total sleep time”, abbreviated as “sTST”, means the derived minutes of sleep from sleep onset until the time the subject stopped trying to sleep for the night. In some embodiments, sTST is derived from data entered in a subject's Sleep Diary.
as §1
sTST—subjective total sleep time: derived minutes of sleep from sleep onset until the time the subject stopped trying to sleep for the night.
as §2, §3

[4] = test system: Subjects Having Insomnia Disorder; assay: Example 2: total sleep time (TST), polysomnography
Method: In some embodiments, a sleep parameter is determined objectively using polysomnography. Polysomnography is the monitoring of multiple electrophysiological parameters during sleep and generally includes measurement of EEG activity, electro-oculographic activity and electromyographic activity, as well as other measurements.
TST—total sleep time: minutes of sleep from sleep onset until terminal awakening.
as §2
Within 5 minutes of the subject's mean habitual bedtime, study drug was administered and an overnight polysomnogram recording was initiated. At completion of the recording the following morning (Day 2), postural stability and cognitive performance were assessed. On the Day 2 evening, subjects returned to the clinic and a blood sample was collected before administering study drug, and then study drug was administered within 5 minutes of the subject's mean habitual bedtime. Again, a polysomnogram recording was initiated. The next morning (Day 3), postural stability and cognitive performance were assessed. A blood sample was also collected.
On Day 29, subjects returned to the clinic. Study drug was administered within 5 minutes of the subject's mean habitual bedtime and a polysomnogram recording was conducted. On the following morning (Day 30), postural stability and cognitive performance were assessed. After 1.5 hours of waketime, subjects rated their morning sleepiness level.
On the evening of Day 30, subjects returned to the clinic. A pre-dose blood sample was collected and study drug was again administered within 5 minutes of the subject's mean habitual bedtime. A polysomnogram recording was initiated. The following morning (Day 31), postural stability and cognitive performance were assessed and a blood sample was obtained. The ISI, FSS, EQ-5D-3L and PGI-Insomnia were administered. Blood and urine samples were collected for routine safety assessment. An electrocardiogram was performed, and vital signs and weight were assessed. The eC-SSRS was then administered to the subject. At 1.5 hours after waketime, subjects rated their morning sleepiness level.

[5] = First 7 Nights of Treatment, Lemborexant 5 mg
[6] = First 7 Nights of Treatment, Lemborexant 10 mg
[7] = Last 7 Nights of Treatment, Lemborexant 5 mg
[8] = Last 7 Nights of Treatment, Lemborexant 10 mg

In the case of `Cc1ncc(OC[C@@]2(c3cccc(F)c3)C[C@H]2C(=O)Nc2ccc(F)cn2)c(C)n1` [Lemborexant, (1R,2S)-2-(((2,4-dimethylpyrimidin-5-yl)oxy)methyl)-2-(3-fluorophenyl)-N-(5-fluoropyridin-2-yl)cyclopropanecarboxamide], the “mean subjective sleep efficiency” value ([1]; 10 mg, relative to baseline, placebo and zolpidem treatment groups (Table 19)) is reported as “increased”, the “Subjective Sleep Efficiency, Change from Study Baseline, Mean (SD)” value (from here on “Subjective Sleep Efficiency, Change … (SD)”) [1, 5] is reported as 10.56 (12.296) and the “Subjective Sleep Efficiency, Mean (SD)” value [1, 5] is reported as 65.96 (18.203). For the same compound, the “Subjective Sleep Efficiency, Model-adjusted change from baseline” value [1, 5] was 10.74, the “Subjective Sleep Efficiency, Change … (SD)” value [1, 6] was 13.97 (14.188) and the “Subjective Sleep Efficiency, Mean (SD)” value [1, 6] was 68.10 (18.356). For the same compound, the “Subjective Sleep Efficiency, Model-adjusted change from baseline” value [1, 6] was 13.81, the “Subjective Sleep Efficiency, Change … (SD)” value [1, 7] was 12.92 (13.884) and the “Subjective Sleep Efficiency, Mean (SD)” value [1, 7] was 68.19 (19.251). For the same compound, the “Subjective Sleep Efficiency, Model-adjusted change from baseline” value [1, 7] was 13.29, the “Subjective Sleep Efficiency, Change … (SD)” value [1, 8] was 16.12 (16.3000) and the “Subjective Sleep Efficiency, Mean (SD)” value [1, 8] was 69.92 (19.098). For the same compound, the “Subjective Sleep Efficiency, Model-adjusted change from baseline” value [1, 8] was 15.87, the “safety and tolerability (incidence of adverse events)” value ([2]; Example 2 (Table 29)) was “safe and well-tolerated” and the Congenital anomaly/birth defect ([2]; Lemborexant 5 mg (N = 266)) was 0 n (%). The Deaths ([2]; Lemborexant 5 mg (N = 266)) was 0 n (%), the Important medical events ([2]; Lemborexant 5 mg (N = 266)) was 1 (0.3) n (%) and the Life threatening ([2]; Lemborexant 5 mg (N = 266)) was 0 n (%). The “Other SAEs” value ([2]; Lemborexant 5 mg (N = 266)) was 2 (0.8) n (%), the “Persistent or significant disability or incapacity” value ([2]; Lemborexant 5 mg (N = 266)) was 0 n (%) and the “Requires inpatient hospitalization or prolongation of existing hospitalization” value ([2]; Lemborexant 5 mg (N = 266)) was 2 (0.8) n (%). The “Serious TEAEs” value ([2]; Lemborexant 5 mg (N = 266)) was 2 (0.8) n (%), the “Severe TEAEs” value ([2]; Lemborexant 5 mg (N = 266)) was 1 (0.4) n (%) and the TEAEs ([2]; Lemborexant 5 mg (N = 266)) was 74 (27.8) n (%). For the same compound, the “TEAEs leading to study dose reduced” value ([2]; Lemborexant 5 mg (N = 266)) was 0 n (%), the “TEAEs leading to study drug dose adjustment” value ([2]; Lemborexant 5 mg (N = 266)) was 3 (1.1) n (%) and the “TEAEs leading to study drug interrupted” value ([2]; Lemborexant 5 mg (N = 266)) was 1 (0.4) n (%). The “TEAEs leading to study drug withdrawal” value ([2]; Lemborexant 5 mg (N = 266)) was 2 (0.8) n (%), the “Treatment-related TEAEs” value ([2]; Lemborexant 5 mg (N = 266)) was 30 (11.3) n (%) and the Congenital anomaly/birth defect ([2]; Lemborexant 10 mg (N = 268)) was 0 n (%). For the same compound, the Deaths ([2]; Lemborexant 10 mg (N = 268)) was 0 n (%), the Important medical events ([2]; Lemborexant 10 mg (N = 268)) was 0 n (%) and the Life threatening ([2]; Lemborexant 10 mg (N = 268)) was 0 n (%). The “Other SAEs” value ([2]; Lemborexant 10 mg (N = 268)) was 0 n (%), the “Persistent or significant disability or incapacity” value ([2]; Lemborexant 10 mg (N = 268)) was 0 n (%) and the “Requires inpatient hospitalization or prolongation of existing hospitalization” value ([2]; Lemborexant 10 mg (N = 268)) was 0 n (%). The “Serious TEAEs” value ([2]; Lemborexant 10 mg (N = 268)) was 0 n (%), the “Severe TEAEs” value ([2]; Lemborexant 10 mg (N = 268)) was 2 (0.7) n (%) and the TEAEs ([2]; Lemborexant 10 mg (N = 268)) was 82 (30.6) n (%). For the same compound, the “TEAEs leading to study dose reduced” value ([2]; Lemborexant 10 mg (N = 268)) was 0 n (%), the “TEAEs leading to study drug dose adjustment” value ([2]; Lemborexant 10 mg (N = 268)) was 3 (1.1) n (%) and the “TEAEs leading to study drug interrupted” value ([2]; Lemborexant 10 mg (N = 268)) was 0 n (%). The “TEAEs leading to study drug withdrawal” value ([2]; Lemborexant 10 mg (N = 268)) was 3 (1.1) n (%), the “Treatment-related TEAEs” value ([2]; Lemborexant 10 mg (N = 268)) was 39 (14.6) n (%) and the “mean subjective total sleep time” value ([3]; 10 mg, relative to baseline, placebo and zolpidem treatment groups (Table 21)) was “increased”. For the same compound, the “Subjective Total Sleep Time, Change from Study Baseline, Mean (SD)” value (from here on “Subjective Total Sleep Time, Change … (SD)”) [3, 5] was 50.30 (60.065), the “Subjective Total Sleep Time, Mean (SD)” value [3, 5] was 322.66 (89.706) and the “Subjective Total Sleep Time, Model-adjusted change from baseline” value [3, 5] was 51.14. For the same compound, the “Subjective Total Sleep Time, Change … (SD)” value [3, 6] was 67.80 (71.134), the “Subjective Total Sleep Time, Mean (SD)” value [3, 6] was 332.92 (91.538) and the “Subjective Total Sleep Time, Model-adjusted change from baseline” value [3, 6] was 66.59. For the same compound, the “Subjective Total Sleep Time, Change … (SD)” value [3, 7] was 62.41 (68.555), the “Subjective Total Sleep Time, Mean (SD)” value [3, 7] was 334.22 (94.339) and the “Subjective Total Sleep Time, Model-adjusted change from baseline” value [3, 7] was 64.22. The “Subjective Total Sleep Time, Change … (SD)” value [3, 8] was 79.95 (81.211), the “Subjective Total Sleep Time, Mean (SD)” value [3, 8] was 343.68 (95.785) and the “Subjective Total Sleep Time, Model-adjusted change from baseline” value [3, 8] was 78.47. The “Total Sleep Time, Change from Study Baseline, Mean (SD)” value ([4]; Days 1/2, Lemborexant 5 mg) was 65.22 (46.695), the “Total Sleep Time, Change from Study Baseline, Median” value (from here on “Total Sleep Time, Change … Median”) ([4]; Days 1/2, Lemborexant 5 mg) was 59.50 and the “Total Sleep Time, Mean (SD)” value ([4]; Days 1/2, Lemborexant 5 mg) was 393.22 (40.346). For the same compound, the “Total Sleep Time, Median” value ([4]; Days 1/2, Lemborexant 5 mg) was 400.63, the “Total Sleep Time, Change from Study Baseline, Mean (SD)” value ([4]; Days 1/2, Lemborexant 10 mg) was 79.58 (47.350) and the “Total Sleep Time, Change … Median” value ([4]; Days 1/2, Lemborexant 10 mg) was 74.25. For the same compound, the “Total Sleep Time, Mean (SD)” value ([4]; Days 1/2, Lemborexant 10 mg) was 404.65 (36.593), the “Total Sleep Time, Median” value ([4]; Days 1/2, Lemborexant 10 mg) was 411.50 and the “Total Sleep Time, Change from Study Baseline, LSM treatment difference: Lemborexant-Zolpidem” value ([4]; Days 29/30, Lemborexant 5 mg) was 19.41 (3.457). For the same compound, the “Total Sleep Time, Change from Study Baseline, Mean (SD)” value ([4]; Days 29/30, Lemborexant 5 mg) was 61.99 (46.817), the “Total Sleep Time, Change … Median” value ([4]; Days 29/30, Lemborexant 5 mg) was 56.50 and the “Total Sleep Time, Mean (SD)” value ([4]; Days 29/30, Lemborexant 5 mg) was 389.97 (42.437). For the same compound, the “Total Sleep Time, Median” value ([4]; Days 29/30, Lemborexant 5 mg) was 399.63, the “Total Sleep Time, Change from Study Baseline, LSM treatment difference: Lemborexant-Zolpidem” value ([4]; Days 29/30, Lemborexant 10 mg) was 24.10 (3.456) and the “Total Sleep Time, Change from Study Baseline, Mean (SD)” value ([4]; Days 29/30, Lemborexant 10 mg) was 67.86 (52.117). For the same compound, the “Total Sleep Time, Change … Median” value ([4]; Days 29/30, Lemborexant 10 mg) was 65.13, the “Total Sleep Time, Mean (SD)” value ([4]; Days 29/30, Lemborexant 10 mg) was 393.16 (42.827) and the “Total Sleep Time, Median” value ([4]; Days 29/30, Lemborexant 10 mg) was 400.88. For the same compound, the “mean total sleep time” value ([4]; all lemborexant treatment groups, relative to baseline, placebo and zolpidem treatment groups (Table 17)) was “increased”.
